Converted amounts (≈) assume the structure as drawn.
Legend:
Cutibacterium acnes = assay: Minimum inhibitory concentration against Propionibacterium acnes was determined; format: functional
Staphylococcus aureus = assay: Minimum inhibitory concentration against Staphylococcus aureus was determined; format: functional

CCCCCCCCCCCCCCCCO [CETYL ALCOHOL]
MIC (Cutibacterium acnes): 0.78 µg/mL (≈ 3.22 µM)
MIC (Staphylococcus aureus): > 800 µg/mL

CCCCCCCCCCCO [UNDECANOL]
MIC (Cutibacterium acnes): 12.5 µg/mL (≈ 72.5 µM)
MIC (Staphylococcus aureus): 25 µg/mL (≈ 145 µM)

CCCCCCO [1-HEXANOL]
MIC (Cutibacterium acnes): > 800 µg/mL
MIC (Staphylococcus aureus): > 800 µg/mL

C=CC(C)(O)CCC=C(C)C (stereo not given) [LINALOOL]
MIC (Cutibacterium acnes): > 800 µg/mL
MIC (Staphylococcus aureus): > 800 µg/mL

CC(C)=CCC/C(C)=C/CC/C(C)=C/CCC(C)O (stereo not given)
MIC (Cutibacterium acnes): 1.56 µg/mL (≈ 5.9 µM)
MIC (Staphylococcus aureus): > 800 µg/mL

CCCCCCCCCCCCCO [TRIDECAN-1-OL]
MIC (Cutibacterium acnes): 1.56 µg/mL (≈ 7.79 µM)
MIC (Staphylococcus aureus): > 800 µg/mL

C=CC(C)(O)CC/C=C(\C)CCC=C(C)C (stereo not given) [NEROLIDOL]
MIC (Cutibacterium acnes): 25 µg/mL (≈ 112 µM)
MIC (Staphylococcus aureus): 50 µg/mL (≈ 225 µM)

CCCCCCCCO [OCTANOL]
MIC (Cutibacterium acnes): 200 µg/mL (≈ 1540 µM)
MIC (Staphylococcus aureus): 800 µg/mL (≈ 6140 µM)

CCCCCCCO [1-HEPTANOL]
MIC (Cutibacterium acnes): 400 µg/mL (≈ 3440 µM)
MIC (Staphylococcus aureus): > 800 µg/mL

CC(C)=CCC/C(C)=C/CO [GERANIOL]
MIC (Cutibacterium acnes): 400 µg/mL (≈ 2590 µM)
MIC (Staphylococcus aureus): 800 µg/mL (≈ 5190 µM)

CCCCCCCCCCCCCCCCCCCCO [1-EICOSANOL]
MIC (Cutibacterium acnes): > 800 µg/mL
MIC (Staphylococcus aureus): > 800 µg/mL

CCCCCCCCCCCCCCCO
MIC (Cutibacterium acnes): 0.78 µg/mL (≈ 3.41 µM)
MIC (Staphylococcus aureus): > 800 µg/mL

CCCCCCCCCO [NONANOL]
MIC (Cutibacterium acnes): 100 µg/mL (≈ 693 µM)
MIC (Staphylococcus aureus): 200 µg/mL (≈ 1390 µM)

CCCCCCCCCCCCCCCCCCO [CETOSTEARYL ALCOHOL]
MIC (Cutibacterium acnes): > 800 µg/mL
MIC (Staphylococcus aureus): > 800 µg/mL

CC(C)=CCC/C(C)=C/CCC(C)O (stereo not given)
MIC (Cutibacterium acnes): 25 µg/mL (≈ 127 µM)
MIC (Staphylococcus aureus): 50 µg/mL (≈ 255 µM)

CCCCCCCCCCO [DECANOL]
MIC (Cutibacterium acnes): 25 µg/mL (≈ 158 µM)
MIC (Staphylococcus aureus): 50 µg/mL (≈ 316 µM)

CC(C)=CCC/C(C)=C/CC/C(C)=C/CO [FARNESOL]
MIC (Cutibacterium acnes): 6.25 µg/mL (≈ 28.1 µM)
MIC (Staphylococcus aureus): 6.25 µg/mL (≈ 28.1 µM)

CCCCCCCCCCCCCCO [MYRISTYL ALCOHOL]
MIC (Cutibacterium acnes): 1.56 µg/mL (≈ 7.28 µM)
MIC (Staphylococcus aureus): > 800 µg/mL

CCCCCCCCCCCCCCCCCO
MIC (Cutibacterium acnes): > 800 µg/mL
MIC (Staphylococcus aureus): > 800 µg/mL

CCCCCCCCCCCCO [DODECANOL]
MIC (Cutibacterium acnes): 3.13 µg/mL (≈ 16.8 µM)
MIC (Staphylococcus aureus): 6.25 µg/mL (≈ 33.5 µM)

Source: ChEMBL document CHEMBL1126964, “Antibacterial activity of long-chain alcohols: the role of hydrophobic alkyl groups” (1993)
